In PubChem BioAssay (NCI):
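Five concentrations, 48 hours, 96-well plates. TGI marks complete inhibition of growth.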

Key:
Test in all cases: growth of human tumour cells (NCI), 48 h
[1] = test system: A549 NSCLC
[2] = test system: HCT-116 colon
[3] = test system: HOP-92 NSCLC
[4] = test system: IGROV1 ovarian
[5] = test system: MALME-3M melanoma
[6] = test system: MDA-MB-231 breast
[7] = test system: MDA-MB-435
[8] = test system: MDA-N
[9] = test system: NCI-H226 lung
[10] = test system: NCI-H460 lung
[11] = test system: OVCAR-3 ovarian
[12] = test system: OVCAR-4 ovarian
[13] = test system: PC-3 prostate
[14] = test system: RPMI-8226 leukemia
[15] = test system: SK-MEL-5 melanoma
[16] = test system: SK-OV-3 ovarian
[17] = test system: SNB-19 CNS
[18] = test system: UACC-257 melanoma
[19] = test system: UACC-62 melanoma
[20] = test system: RXF 393 renal

Row | Structure (SMILES) | TGI [1] [µM] | TGI [2] [µM] | TGI [3] [µM] | TGI [4] [µM] | TGI [5] [µM] | TGI [6] [µM] | TGI [7] [µM] | TGI [8] [µM] | TGI [9] [µM] | TGI [10] [µM] | TGI [11] [µM] | TGI [12] [µM] | TGI [13] [µM] | TGI [14] [µM] | TGI [15] [µM] | TGI [16] [µM] | TGI [17] [µM] | TGI [18] [µM] | TGI [19] [µM] | TGI [20] [µM]
1 | C/C(=N\NC(=S)NCc1ccccc1)c1nc2ncccc2[nH]1 | > 100 | 17.3 | 22.5 | 34.1 | 34.6 | 90.2 | 33.5 | 26.8 | 20.8 | 27.6 | 39.8 | 83 | 50.2 | 59.9 | 14.6 | > 100 | 50.2 | 22.1 | 27.1 | 
2 | O=C(CCN1CCOCC1)C(=Cc1ccccc1)C(=O)CCN1CCOCC1 | 35.8 | 5.5 | 4.06 | 20.3 | 4.64 |  |  |  | 29.4 | 28.3 | 14.4 | 19.9 |  | 4.14 | 18.2 | 31.1 | 28.3 | 3.5 | 6.19 | 3.14
3 | COc1cc2oc(=O)ccc2cc1CC=C(C)C | > 100 | > 100 | 69 | > 100 | > 100 | > 100 | > 100 | > 100 | 98.6 | > 100 | > 100 | > 100 | > 100 | 61 | 73.7 |  | > 100 | > 100 |  | 64.7
4 | CCN(CC)CCN(C(=O)c1ccc(F)cc1)c1ccccc1N | > 10 | > 10 |  | > 10 | > 10 | > 10 | > 10 | > 10 | > 10 | > 10 | > 10 | > 10 | > 10 | > 10 | > 10 | > 10 | > 10 |  | > 10 | > 10
5 | CC(=O)NNc1nc(C)c(C(=O)NNC(=O)C(=O)Nc2c(C)cccc2C(C)(C)C)s1 | > 100 | > 100 | > 100 | > 100 |  |  |  |  | > 100 | > 100 |  | > 100 |  | > 100 | > 100 | > 100 | > 100 | > 100 | > 100 | > 100
6 | COC(=O)C1=C(C)N2CCOC2CC1c1ccccc1 (centres undefined) | > 100 | > 100 | > 100 | > 100 |  |  |  |  | > 100 | > 100 | > 100 | > 100 |  | > 100 | > 100 |  | > 100 | > 100 | > 100 | > 100
7 | CN(C)CCN(C(=Nc1ccccc1)N1CCCC1)c1ccccc1 | > 100 | > 100 | > 100 | > 100 | > 100 |  | > 100 | 86.6 | > 100 | > 100 | > 100 | > 100 | > 100 | 82.3 | > 100 | > 100 | > 100 | > 100 | > 100 | 
8 | Cc1ccc(S(=O)(=O)NNC2Oc3cc4c(cc3C(c3ccccc3O)C2C)OCO4)cc1 (centres undefined) | 26.8 | 22.1 | 31.7 | 27.2 | 25.9 | 31.4 | 26.8 | 27 | 28.3 | 24.5 | 23.7 |  | 22.8 | 47.1 | 27.6 | 37.9 | 25.6 | 23.3 | 29.8 | 19.3
9 | Cc1ccc(S(=O)(=O)NCCCSCCSCCCN)cc1 | > 100 | > 100 | > 100 |  |  | > 100 | > 100 | > 100 | > 100 | > 100 | > 100 | > 100 | > 100 |  | > 100 | > 100 | > 100 | > 100 |  | > 100
10 | COc1cc(C(=O)Nc2cc(C(N)=O)cc(OC)c2OC)cc(NC(=O)/C=C/c2ccccc2)c1OC | > 100 |  | > 100 | > 100 | 64 | 57.5 | > 100 | > 100 |  | > 100 | > 100 | > 100 | > 100 | > 100 |  | > 100 | > 100 | > 100 | 35.6 | > 100
